# Literature values, collected in patent publication US9622976B2, “Pharmaceutical composition” (LEK PHARMACEUTICALS D.D., priority 2006, dated 2017).
# Settings: pH 6.8 phosphate buffer
structure (smiles),measurement,value
"CCCc1nc2c(C)cc(-c3nc4ccccc4n3C)cc2n1Cc1ccc(-c2ccccc2C(=O)O)cc1 [Telmisartan, 2-[4-[[4-methyl-6-(1-methylbenzoimidazol-2-yl)-2-propyl-benzoimidazol-1-yl]methyl]phenyl]benzoic acid]",solubility,≤ 2 μg per ml
